One series has as its system HGC-27 cells. The series is described as follows: MTT cytotoxicity / anti-proliferation assay. Format: cell-based, human. As to conditions: HGC-27, MTT, 72 h; read-out: IC50, cancer cell viability. On the procedure: Undifferentiated human gastric cancer cell line (HGC-27) was purchased from the China Center for Type Collection (CCTCC, China) and used with 10% Foetal Bovine Serum (FBS, Gemini, Bio-Product, CA, United States), 1% penicillin streptomycin (PS) and 89% 1,640 medium ([…]) for culture. All cells were incubated at 37°C in a constant temperature incubator containing 95% air and 5% CO2.
To evaluate the cytotoxicity of F8 and related organic salts on HGC-27 cells, MTT analysis was performed. HGC-27 cells were digested with trypsin, then cells were spread into 96-well plates at a density of 3,000 cells/well and incubated for 12–16 h. After 12 h, the medium in 96-well plates was replaced with compounds containing 1, 0.5, 0.25, 0.125, 0.062, 0.0312 μM for another 72 h. Three days later, 20 μL MTT solution was added and incubated at 37°C for 4 h. Then 150 μL DMSO solution was added to each well after the fluid was removed, and the absorbance was detected by microplate reader. The compound dissolved in DMSO was added to the cell medium so that the final concentration of DMSO was less than 0.4%.
Infinite proliferation is one of the most prominent features of cancer cells, therefore, we evaluated the anti-proliferation activity of compounds F8 and related organic salts against human gastric carcinoma HGC-27 via MTT assay.

In another series the test system is MDA-MB-468. The series is described as follows: MTT cytotoxicity / anti-proliferation assay. Format: cell-based. As to conditions: MDA-MB-468, MTT, 72 h; read-out: IC50, cancer cell viability.
The subject of a further series is SK-Hep-1. The series is described as follows: MTT cytotoxicity / anti-proliferation assay. The class given is cell-based. As to conditions: SK-Hep-1, MTT, 72 h; read-out: IC50, cancer cell viability.
In the next series the test system is HuH7. The series is described as follows: MTT cytotoxicity / anti-proliferation assay. The class given is cell-based. To be noted: 72 h, read-out: IC50, cancer cell viability.
The test system of a further series is HCT-116. The series can be described thus: MTT cytotoxicity / anti-proliferation assay. Format: cell-based. To be noted: HCT-116, MTT, 72 h; read-out: IC50, cancer cell viability.
The subject of another series is MCF-7. The series is described as follows: MTT cytotoxicity / anti-proliferation assay. Format: cell-based. As to conditions: MCF-7, MTT, 72 h; read-out: IC50, cancer cell viability.
Another series has as its system HCC-1937. The series is described as follows: MTT cytotoxicity / anti-proliferation assay. To be noted: HCC-1937, MTT, 72 h; read-out: IC50, cancer cell viability. Format: cell-based.
The nature of series [1]: Solubility in aqueous solution (pure water, normal saline). The class given is physicochemical.
The nature of another series: Pharmacokinetic study. Format: in vivo, SD rats. On the procedure: 7–8-week Male SD rats weighing 180–220 g were allowed for this experiment. The rats were fasted 12 h except for water. The solution was administered to rats by intravenous injection of 10% ethanol +10% solutol as solvent and intragastric injection of 5% castor oil +5% solutol as solvent. The dose concentration was 8 mg/mL for intravenous injection and 10 mg/mL for gavage.
Twelve male SD rats were divided into 4 groups with 3 rats in each group. Group 1 was F8-intravenous injection group, the dose was 20 mg/kg; Group 2 was F8- intragastric administration group, the dose was 100 mg/kg; Group 3 was F8·2HCl-intragastric administration group, the dose was 100 mg/kg. Blank blood was collected before administration, and blood was collected at predetermined time points after administration:
Intravenous injection group: before administration, 2 min, 5 min, 15 min, 30 min, 1 h, 2 h, 4 h, 8 h, 12 h, 24 h. Intragastric administration group: Before administration, 5 min, 15 min, 30 min, 1 h, 2 h, 4 h, 6 h, 8 h, 12 h, 24 h. About 0.5 mL of blood was collected and placed in an EDTA-K2 tube at […]. The plasma was centrifuged and stored at −80°C. The samples were detected by liquid-mass spectrometry analysis system. The chromatographic column used was ODS-C18 (4.6 × 50 mm, 3 µm). The chromatographic conditions were as follows: Mobile phase A is aqueous phase, […] (including 0.1% formic acid); Mobile phase B is organic, 95% acetonitrile (containing 0.1% formic acid). Flow rate of 0.4 mL/min, column temperature: room temperature, according to the drug plasma concentration data, calculated pharmacokinetic parameters using DAS 2.0 software.
After oral administration, drugs need to go through four stages, namely, absorption, distribution, metabolism and excretion. However, the changes in solubility of drugs after salting only affect the absorption stage. Since absorption is accompanied by a dissolution process, the water solubility and dissolution rate of drugs are the main factors that determine their absorption, and then affect their oral bioavailability ([Elder et al., 2013]). Under the stimulation of cell activity and increased solubility, pharmacokinetic experiments were carried out to understand the drug exposure and provide a basis for further druggability of compound F8. In this study, compound F8 and F8·2HCl were administered in two different ways: tail vein injection (20 mg/kg) and gavage (100 mg/kg), and pharmacokinetic parameters were measured in Sprague-Dawley (SD) rats (Figures 3, 4).

A further series has as its system CDK2. The series can be described thus: Immunohistochemical analysis of HGC-27 xenograft tumor. To be noted: vs blank group. Format: in vivo. The protocol: (§1) Then, immunohistochemical analysis was performed on the tumor of the HGC-27 xenograft tumor model. It is known that cyclin-dependent kinase 2 (CDK2) and CDK inhibitor p21 play pivotal parts in cell cycle regulation, while both downregulation of CDK2 or upregulation of p21 lead to cell cycle arrest ([[…] et al., 2019]; [Sturmlechner et al., 2021]). […] Ki-67 is an antigen associated with proliferating cells, which is usually positively correlated with tumor growth rate ([Menon et al., 2019]). […] Cleaved Caspase-3 is a pro-apoptotic protein, the higher the expression of this protein, the stronger […] ([Wei et al., 2020]). […] E-cadherin which is a type of cell surface transmembrane glycoprotein has an important influence on the cell-cell adhesion function. […] Representative tumor images of IHC analysis stained by CDK2, Cleaved Caspase-3, E-cadherin, KI-67 and p21. Magnification: × 400.

The test system of the next series is Cleaved Caspase-3. Described as above. Format: in vivo. As to conditions: vs blank group. The protocol: as §1
Another series relates to E-cadherin. The series is described as above. The class given is in vivo. To be noted: vs blank group. On the procedure:
as §1

The next series relates to Ki-67. The description is as above. The class given is in vivo. To be noted: vs blank group. The protocol:
as §1

The subject of a further series is p21. The description is as above. Format: in vivo. As to conditions: vs blank group. On the procedure:
as §1

Setting [2] is: SD rats, 100 mg/kg, route ip (methods: intragastric), 100 mg/kg.
Where [3] appears, read: SD rats, oral administration 100 mg/kg, 100 mg/kg.

“Also recorded” adds a separate entry of the source.

Consider `O=C(NCc1ccc(NC(=O)c2cc(F)ccc2N2CCCC2)cc1)OCc1cccnc1` [F8·2HCl], for which the IC50 is 0.25 ± 0.01 µM in the series with HGC-27 cells; 1.42 ± 0.19 µM in the series on MDA-MB-468; 9.37 ± 0.91 µM in the series with SK-Hep-1; 10.9 ± 0.97 µM with HuH7; 4.02 ± 0.28 µM in the series with HCT-116; 47.69 ± 0.15 µM in the series on MCF-7. The half-inhibitory concentration (IC50) with HCC-1937 was found to be 48.81 ± 0.18 µM. Moreover, the “water solubility relative to compound F8” value in [1] (F8·2HCl vs F8) is “more than 50 times”. Further, the “solubility in normal saline” value in series [1] (normal saline, compared with pure water) is listed as “not much different from pure water”. For the same molecule, the “Solubility in aqueous solution” value in series [1] (pure water) is “more than 50 mg/mL”. Moreover, the “AUC (0-∞)” value in “Pharmacokinetic study” (setting [2]) came to 1770 ng·h/mL. In addition, in the series “Pharmacokinetic study” (setting [2]), the Cmax was found to be 580 ng/mL. In addition, the T1/2 in “Pharmacokinetic study” (setting [2]) is 3.63 h. Further, the Tmax in the series “Pharmacokinetic study” (setting [2]) was determined as 1.42 h. Besides, in the series “Pharmacokinetic study” (SD rats, oral 100 mg/kg vs iv 20 mg/kg), the bioavailability is given as 5.06%. This molecule displayed an area under the concentration-time curve (AUC0-t) in the series “Pharmacokinetic study” (setting [3]) of 1770 ng·h/mL. In “Pharmacokinetic study” (setting [3]), the peak plasma concentration was 0.58 µg/mL. Besides, the half-life extension relative to F8 in “Pharmacokinetic study” (male, Sprague-Dawley, rat, plasma, po, 100 mg/kg, same oral dose, F8·2HCl vs F8) is 1 h. For the same molecule, the “increase of Tmax relative to F8” value in “Pharmacokinetic study” (same oral dose, F8·2HCl vs F8) is recorded as ~10 times. Further, the “expression of CDK2 (IHC)” value in the series with CDK2 is reported as “declined dose-dependently; also recorded: significantly decreased”. In addition, the “expression of Cleaved Caspase-3 protein (IHC)” value in the series on Cleaved Caspase-3 is reported as “significantly upregulated; also recorded: increased”. The “expression level of E-cadherin protein (IHC)” value with E-cadherin is on record as “increase the expression level; also recorded: increased”. Moreover, the “expression of Ki-67 protein (IHC)” value with Ki-67 is listed as “significantly decreased”. Besides, in the series with p21, the “level of p21 protein (IHC)” value is “significantly upregulated”.
